Laboratory results reported in US12215123B2, “Cordycepin-based derivatized compound with anti-tumor effect” (NANJING TECH UNIVERSITY, priority 2022, dated 2025).
Where two headings read alike, the source gives them in different places.

Legend:
[1] = system: small cell lung cancer cell line H1048; assay: MTT proliferation, small cell lung cancer cell line H1048; format: cell-based; conditions: read-out: IC50 (μM) of compounds in small cell lung cancer cells, H1048
Outline: (§1)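 MTT assay: cells seeded at 2 to 4×10^4 cells/mL, grown 24 h, then exposed to compound for 72 h. MTT added for 4 h, formazan dissolved in DMSO and absorbance read at 570 nm; IC50 taken from the S-shaped concentration-inhibition curve.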

[2] = system: pancreatic cancer Pan02-luc cells; assay: Mouse transplanted pancreatic cancer model, survival; format: in vivo, C57BL/6j nude mice; conditions: intragastric 500 ug/time/animal every day for 24 days, control 41 days
Description: The feeding of the mouse model in the drug evaluation follows that: mice are fed and treated in a laminar flow cabinet, with 5 nude mice in each cage, drinking water and feedstuffs are added once every 3 days, and paddings are replaced once a week; a number of mice kept in each cage is no more than 5, the mice in separate cages are kept in groups as far as possible, and the mice should not be kept in a single cage; the animal management must conform to the relevant national standards on animal feeding management, and the behavioral needs of animals should be concerned at the same time to avoid unnecessary stress; the normal physiological and behavioral needs of animals, such as defecation, urination, constant body temperature maintenance, normal activities, posture adjustment and reproduction are met; good ventilation and dry animals are kept; the animals can access to drinking water and food at will, and supplementation, replacement and cleaning operations are easily carried out; a solid and safe environment is provided to avoid accidents of animals, such as escaping or limb trapping in a gap; the animals are avoided from being damaged by sharp edges or protrusions; and the animals are not disturbed during observation. […]

[3] = system: gastric cancer cell line BGC-823; assay: MTT proliferation, gastric cancer cell line BGC-823; format: cell-based; conditions: Homo sapiens, read-out: IC50 (μM) in gastric cancer cells, BGC-823
Outline: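 Tumour cells in exponential growth were trypsinised, seeded at 2 to 4×10^4 cells/mL, cultured 24 hours, then exposed to compounds for 72 hours. MTT was added for 4 hours, formazan dissolved in DMSO and absorbance read at 570 nm. IC50 came from an S curve of inhibition rate against concentration.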

[4] = system: small cell lung cancer cell line H69; assay: MTT proliferation, small cell lung cancer cell line H69; format: cell-based; conditions: read-out: IC50 (μM) of compounds in small cell lung cancer cells, H69
Outline: as §1

[5] = system: small cell lung cancer cell line H446; assay: MTT proliferation, small cell lung cancer cell line H446; format: cell-based; conditions: read-out: IC50 (μM) of compounds in small cell lung cancer cells, H446
Outline: as §1

[6] = system: BGC-823 gastric cancer cells; assay: Mouse transplanted gastric cancer model; format: in vivo, C57BL/6j nude mice; conditions: BGC-823 transplanted mice, intragastric 500 ug/time/animal every day, 18 days; for tumor weight: control 1.73 g
Description: The feeding of the mouse model in the drug evaluation follows that: mice are fed and treated in a laminar flow cabinet, with 5 nude mice in each cage, drinking water and feedstuffs are added once every 3 days, and paddings are replaced once a week; a number of mice kept in each cage is no more than 5, the mice in separate cages are kept in groups as far as possible, and the mice should not be kept in a single cage; the animal management must conform to the relevant national standards on animal feeding management, and the behavioral needs of animals should be concerned at the same time to avoid unnecessary stress; the normal physiological and behavioral needs of animals, such as defecation, urination, constant body temperature maintenance, normal activities, posture adjustment and reproduction are met; good ventilation and dry animals are kept; the animals can access to drinking water and food at will, and supplementation, replacement and cleaning operations are easily carried out; a solid and safe environment is provided to avoid accidents of animals, such as escaping or limb trapping in a gap; the animals are avoided from being damaged by sharp edges or protrusions; and the animals are not disturbed during observation.
A mouse transplanted gastric cancer model was established and a drug was evaluated. 2×10^7 BGC-823 gastric cancer cells were suspended in 100 μL of PBS to be inoculated into an anterior chest wall of C57BL/6j nude mice, disinfection was carried out with 75% ethanol, and the most obvious part of apical impulse was touched with hand to inoculate the cells to a left ventricle in a second intercostal space about 3 mm to the left of the sternum. About one week later, when the transplanted tumor reached about 100 mm^3, the mice were randomly divided into five groups, with 10 mice in each group, comprising a control group, a cordycepin group, and compound 16, compound 18 and compound 24 drug groups respectively. The control group was intragastrically administrated with a nutritional agent such as a corn steep liquor and DMSO as a solvent control every day; the cordycepin group was intragastrically administrated with the cordycepin (500 ug/time/animal) every day under configuration with DMSO; and the compound drug groups were intragastrically administrated with the compounds (500 ug/time/animal) every day under configuration with DMSO. The administration was carried out for 18 consecutive days. Changes of gastric tumor sizes in the five groups of mice were observed every two days, the mice were killed after the experiment, blood and corresponding tissue samples were collected, and tumor bodies were immediately photographed and weighed.

Compound	IC50 ([1]; Homo sapiens, NCI-H1048, 72 h, MTT, 72 hours, H1048)	IC50 ([1]; MTT, 72 hours, H1048)	survival time of the tumor-bearing mice (median survival time) [2]	IC50 ([3]; MTT, 72 hours, BGC-823)	IC50 ([4]; MTT, 72 hours, H69)	IC50 ([5]; Homo sapiens, NCI-H446, 72 h, MTT, 72 hours, H446)	IC50 ([5]; MTT, 72 hours, H446)	tumor weight, times lower than that of the control group [6]	tumor weight [6]	IC50 ([1]; Homo sapiens, NCI-H1048, 72 h)	IC50 ([3]; BGC-823, 72 h)	IC50 ([4]; 72 h)	IC50 ([5]; Homo sapiens, NCI-H446, 72 h)
Nc1ncnc2c1ncn2[C@@H]1O[C@H](CO)C[C@H]1O [Cordycepin, 3′-deoxyadenosine]	> 100 µM	172 µM	52 days	235 µM	63.1 µM	> 100 µM	123 µM	about 4 times	0.46 g				
CC(C)OC(=O)C(C)NP(=O)(COC[C@@H]1CC(O)[C@H](n2cnc3c(NC(=O)c4ccncc4)ncnc32)O1)Oc1ccccc1 (stereo partly shown) [Compound 24, isopropyl((((4-hydroxy-5-(6-(isonicotinamide)-9H-purin-9-yl)tetrahydrofuran-2-yl)methoxy)methyl)(phenoxy)phosphoryl)alanine ester]			76 days					about 12 times	0.14 g	24.4 µM	0.09 µM	25.5 µM	17.2 µM
